27 molecules from patent EP2970215B1, “PYRROLIDINE DERIVATIVES, PHARMACEUTICAL COMPOSITIONS CONTAINING THEM, AND THEIR USE IN THERAPY” (AbbVie Deutschland GmbH & Co. KG, priority 2013, dated 2014) can be followed below.

The term Ki denotes the equilibrium dissociation constant of an inhibitor or competing ligand from its target.

The first experiment deals with T1, human GlyT1c transporter (Homo sapiens, UniProt P48067).
T1 construct: expressed in transfected cells; host or cells: CHO cells (recombinant; line hGlyT1c_5_CHO is named for the uptake assay)
T1 sequence (P48067 1-706): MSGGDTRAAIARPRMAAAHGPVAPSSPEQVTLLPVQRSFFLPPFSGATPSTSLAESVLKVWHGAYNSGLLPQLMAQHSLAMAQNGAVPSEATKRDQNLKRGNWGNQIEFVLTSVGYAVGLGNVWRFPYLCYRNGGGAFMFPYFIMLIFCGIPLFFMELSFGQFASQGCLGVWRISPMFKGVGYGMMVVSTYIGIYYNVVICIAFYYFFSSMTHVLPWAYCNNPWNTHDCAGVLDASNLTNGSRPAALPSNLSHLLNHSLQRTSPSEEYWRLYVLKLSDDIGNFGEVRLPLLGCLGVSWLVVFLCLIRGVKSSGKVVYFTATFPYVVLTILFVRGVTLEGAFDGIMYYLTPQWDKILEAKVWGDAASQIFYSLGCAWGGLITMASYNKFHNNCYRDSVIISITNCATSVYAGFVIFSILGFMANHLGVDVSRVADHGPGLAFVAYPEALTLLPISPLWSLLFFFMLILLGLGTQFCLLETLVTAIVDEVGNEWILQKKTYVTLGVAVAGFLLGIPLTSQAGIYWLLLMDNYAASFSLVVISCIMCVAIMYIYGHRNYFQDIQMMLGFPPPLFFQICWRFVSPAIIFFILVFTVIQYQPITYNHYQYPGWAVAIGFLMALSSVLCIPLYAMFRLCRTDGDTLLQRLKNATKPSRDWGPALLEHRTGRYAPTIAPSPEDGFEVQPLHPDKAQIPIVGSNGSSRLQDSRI
Nature of the experiment: Radioligand binding assay using recombinant CHO cell membranes expressing human GlyT1. As to conditions: radioligand binding to human GlyT1c transporter-expressing membranes. The source says: 2. Radioligand binding assays using recombinant CHO cell membranes expressing human GlyT1: […]
Regarding `Cn1cnc(S(=O)(=O)N2C[C@H](NCCCCC(F)(F)F)[C@@H](c3ccc(F)cc3)C2)c1` [Example 732, (3R,4S)-4-(4-fluorophenyl)-1-[(1-methyl-1H-imidazol-4-yl)sulfonyl]-N-(5,5,5-trifluoropentyl)pyrrolidin-3-amine], the Ki is at most 0.1 µM.

Regarding `Cn1cnc(S(=O)(=O)N2C[C@@H](CNCC3CC3)[C@H](c3ccc(F)cc3)C2)c1` [Example 607, 1-cyclopropyl-N-({(3R,4R)-4-(4-fluorophenyl)-1-[(1-methyl-1H-imidazol-4-yl)sulfonyl]pyrrolidin-3-yl}methyl)methanamine], the Ki was at most 10 µM.

For the molecule `Cn1cnc(S(=O)(=O)N2C[C@@H](Nc3cccc(OC(F)(F)F)c3)[C@H](c3ccccc3)C2)c1` (relative stereo) [Example 226, trans-1-[(1-methyl-1H-imidazol-4-yl)sulfonyl]-4-phenyl-N-[3-(trifluoromethoxy)phenyl]pyrrolidin-3-amine], the Ki is at most 0.01 µM.

For `Cn1cnc(S(=O)(=O)N2C[C@@H](NC(=O)c3cccc(C(F)(F)F)c3Cl)[C@H](c3ccccc3)C2)c1Cl` (relative stereo) [Example 48, 2-chloro-N-{trans-1-[(5-chloro-1-methyl-1H-imidazol-4-yl)sulfonyl]-4-phenylpyrrolidin-3-yl}-3-(trifluoromethyl)benzamide], the Ki is at most 10 µM.

`Cn1cnc(S(=O)(=O)N2C[C@H](Nc3cccc(C(F)(F)F)n3)[C@@H](c3ccc(F)cc3)C2)c1` [Example 351, N-{(3R,4S)-4-(4-fluorophenyl)-1-[(1-methyl-1H-imidazol-4-yl)sulfonyl]pyrrolidin-3-yl}-6-(trifluoromethyl)pyridin-2-amine]: the Ki was at most 1 µM.

Regarding `O=C(N[C@@H]1CN(S(=O)(=O)c2ccc(C(F)(F)F)cc2)C[C@H]1c1ccccc1)c1cc(Cl)cc(Cl)c1` (relative stereo) [Example 142, 3,5-dichloro-N-[trans-4-phenyl-1-{[4-(trifluoromethyl)phenyl]sulfonyl}pyrrolidin-3-yl]benzamide], the Ki is at most 10 µM.

In the case of `Cn1cnc(S(=O)(=O)N2C[C@H](Nc3cc(Cl)c(Cl)cn3)[C@@H](c3ccc(F)cc3)C2)c1` [Example 706, 4,5-dichloro-N-{(3R,4S)-4-(4-fluorophenyl)-1-[(1-methyl-1H-imidazol-4-yl)sulfonyl]pyrrolidin-3-yl}pyridin-2-amine], the Ki was at most 10 µM.

As to `COCCNC(=O)[C@@H]1CN(S(=O)(=O)c2cn(C)cn2)C[C@H]1c1ccc(F)cc1` [Example 579, (3S,4R)-4-(4-fluorophenyl)-N-(2-methoxyethyl)-1-[(1-methyl-1H-imidazol-4-yl)sulfonyl]pyrrolidine-3-carboxamide], the Ki was at most 10 µM.

Consider `CCCS(=O)(=O)N1C[C@@H](NC(=O)c2ccc(C(F)(F)F)cc2)[C@H](c2ccccc2)C1` (relative stereo) [Example 125, N-[trans-4-phenyl-1-(propylsulfonyl)pyrrolidin-3-yl]-4-(trifluoromethyl)benzamide], for which the Ki is above 10 µM.

`Cn1cnc(S(=O)(=O)N2C[C@H](OCC(=O)NCC(F)F)[C@@H](c3ccc(F)cc3)C2)c1` [Example 797, N-(2,2-difluoroethyl)-2-({(3R,4S)-4-(4-fluorophenyl)-1-[(1-methyl-1H-imidazol-4-yl)sulfonyl]pyrrolidin-3-yl}oxy)acetamide]: the Ki is at most 10 µM.

With `Cn1cnc(S(=O)(=O)N2C[C@@H]([C@@H]3CCCOC3)[C@H](Nc3cccc(-c4ccccc4)c3)C2)c1` (mixture of isomers) [Example 787, trans-N-(biphenyl-3-yl)-1-[(1-methyl-1H-imidazol-4-yl)sulfonyl]-4-[(3S)-tetrahydro-2H-pyran-3-yl]pyrrolidin-3-amine], the Ki was at most 1 µM.

For `Cc1cc2c(cc1S(=O)(=O)N1CC(Nc3ccc(F)c(F)c3)C(c3ccccc3)C1)OCC(=O)N2` (stereo not drawn) [Example 481, 7-({3-[(3,4-difluorophenyl)amino]-4-phenylpyrrolidin-1-yl}sulfonyl)-6-methyl-2H-1,4-benzoxazin-3(4H)-one], the Ki is at most 10 µM.

For the molecule `CCCCCCN[C@H]1CN(S(=O)(=O)c2cn(C)cn2)C[C@@H]1C1CCCCO1` (stereo partly drawn) [Example 679, (3R,4S)-N-hexyl-1-[(1-methyl-1H-imidazol-4-yl)sulfonyl]-4-(tetrahydro-2H-pyran-2-yl)pyrrolidin-3-amine], the Ki is at most 1 µM.

Regarding `Cn1cnc(S(=O)(=O)N2C[C@@H](Nc3ccccc3F)[C@H](c3ccccc3)C2)c1` (relative stereo) [Example 69, trans-N-(2-fluorophenyl)-1-[(1-methyl-1H-imidazol-4-yl)sulfonyl]-4-phenylpyrrolidin-3-amine], the Ki was at most 10 µM.

As for `Cc1nc(N[C@H]2CN(S(=O)(=O)c3cn(C)cn3)C[C@@H]2c2ccccc2)nn1C` [Example 575, 1,5-dimethyl-N-{(3R,4S)-1-[(1-methyl-1H-imidazol-4-yl)sulfonyl]-4-phenylpyrrolidin-3-yl}-1H-1,2,4-triazol-3-amine], the Ki was at most 10 µM.

As for `Cn1cnc(S(=O)(=O)N2C[C@@H](CO)[C@H](c3ccc(F)cc3)C2)c1` (relative stereo) [Example 206, {Trans-4-(4-fluorophenyl)-1-[(1-methyl-1H-imidazol-4-yl)sulfonyl]pyrrolidin-3-yl}methanol], the Ki is at most 10 µM.

Turning to `Cn1cnc(S(=O)(=O)N2C[C@@H](Nc3ccc(F)c(F)c3F)[C@H](c3ccc(F)cc3)C2)c1` (relative stereo) [Example 166, trans-4-(4-fluorophenyl)-1-[(1-methyl-1H-imidazol-4-yl)sulfonyl]-N-(2,3,4-trifluorophenyl)pyrrolidin-3-amine], the Ki was at most 1 µM.

For the molecule `Cn1cnc(S(=O)(=O)N2C[C@@H](COc3cccc(C(F)(F)F)c3)[C@H](c3ccc(F)cc3)C2)c1` (relative stereo) [Example 293, 4-{[trans-3-(4-fluorophenyl)-4-{[3-(trifluoromethyl)phenoxy]methyl}pyrrolidin-1-yl]sulfonyl}-1-methyl-1H-imidazole], the Ki is at most 0.1 µM.

Consider `CC(C)c1cc(N[C@H]2CN(S(=O)(=O)c3cn(C)cn3)C[C@@H]2c2ccc(F)cc2)ccc1Cl` [Example 675, (3R,4S)-N-[4-chloro-3-(propan-2-yl)phenyl]-4-(4-fluorophenyl)-1-[(1-methyl-1H-imidazol-4-yl)sulfonyl]pyrrolidin-3-amine], for which the inhibitory constant (Ki) is at most 1 µM.

Regarding `Cn1nccc1S(=O)(=O)N1C[C@@H](NC(=O)c2cccc(C(F)(F)F)c2Cl)[C@H](c2ccccc2)C1` (relative stereo) [Example 47, 2-chloro-N-{trans-1-[(1-methyl-1H-pyrazol-5-yl)sulfonyl]-4-phenylpyrrolidin-3-yl}-3-(trifluoromethyl)benzamide], the Ki was at least 10 µM.

On to `CCCCC(O)C(=O)N[C@H]1CN(S(=O)(=O)c2cn(C)cn2)C[C@@H]1c1ccc(F)cc1` (stereo partly drawn) [Example 673, N-{(3R,4S)-4-(4-fluorophenyl)-1-[(1-methyl-1H-imidazol-4-yl)sulfonyl]pyrrolidin-3-yl}-2-hydroxyhexanamide], for which the Ki was at most 1 µM.

Consider `Cn1cnc(S(=O)(=O)N2C[C@@H](Nc3ccc(F)cc3F)[C@H](c3ccc(F)cc3)C2)c1` (relative stereo) [Example 165, trans-N-(2,4-difluorophenyl)-4-(4-fluorophenyl)-1-[(1-methyl-1H-imidazol-4-yl)sulfonyl]pyrrolidin-3-amine], for which the Ki is at most 1 µM.

On to `Cn1cnc(S(=O)(=O)N2C[C@@H](Nc3cncc(F)c3)[C@H](c3ccccc3)C2)c1` (relative stereo) [Example 237, 5-fluoro-N-{trans-1-[(1-methyl-1H-imidazol-4-yl)sulfonyl]-4-phenylpyrrolidin-3-yl}pyridin-3-amine], for which the Ki is at most 10 µM.

As for `Cc1nn(C(C)C)cc1S(=O)(=O)N1CC(Nc2ccc(F)c(F)c2)C(c2ccccc2)C1` (stereo not drawn) [Example 475, N-(3,4-difluorophenyl)-1-{[3-methyl-1-(propan-2-yl)-1H-pyrazol-4-yl]sulfonyl}-4-phenylpyrrolidin-3-amine], the Ki was at most 10 µM.

Turning to `COCC(C)NC(=O)[C@@H]1CN(S(=O)(=O)c2cn(C)cn2)C[C@H]1c1ccc(F)cc1` (stereo partly drawn) [Example 582, (3S,4R)-4-(4-fluorophenyl)-N-[1-methoxypropan-2-yl]-1-[(1-methyl-1H-imidazol-4-yl)sulfonyl]pyrrolidine-3-carboxamide], the inhibition constant (Ki) was at most 10 µM.

The experiment is the same for the next values; noted with them: radioligand binding, recombinant CHO cell membranes expressing human GlyT1c.
As for `Cn1cnc(S(=O)(=O)N2C[C@@H](Nc3ccc(F)c(Cl)c3)[C@H](C3CCCO3)C2)c1` (relative stereo) [Example 824, Trans-N-(3-chloro-4-fluorophenyl)-1-[(1-methyl-1H-imidazol-4-yl)sulfonyl]-4-(tetrahydrofuran-2-yl)pyrrolidin-3-amine], the Ki was at most 1 µM.

With `Cc1cccc(N[C@@H]2CN(S(=O)(=O)c3cn(C)cn3)C[C@H]2C2CCOC2)c1` (relative stereo) [Example 828, trans-1-[(1-methyl-1H-imidazol-4-yl)sulfonyl]-N-(3-methylphenyl)-4-(tetrahydrofuran-3-yl)pyrrolidin-3-amine], the Ki is at most 10 µM.
